“Also recorded” adds a separate entry of the source.
Legend:
[1] = human, in vivo
Description: The methods and products of the invention concern dosages that are clinically proven safe and/or effective. Adverse events that impact whether the inventive dose, dosing regimen, treatment or method with rivaroxaban of the present invention are safe are adverse bleeding events that include, for example, major bleeding. “Major bleeding” as used herein is defined in accordance with ISTH criteria as clinically overt bleeding associated with a decrease in hemoglobin of […], a transfusion of the equivalent of […] of packed red blood cells or whole blood, or bleeding at a critical site, or with fatal outcome. Other adverse events include clinically relevant non-major bleeding and trivial (minimal) bleeding.
The primary safety outcome was ISTH defined major bleeding. Major bleeding was defined as overt bleeding and: […]
1) Associated with a fall in hemoglobin of 2 g/dL or more; or 2) Leading to a transfusion of the equivalent of 2 or more units of packed red blood cells or whole blood in adults; or 3) Occurring in a critical site: intracranial, intraspinal, intraocular, pericardial, intraarticular, intramuscular with compartment syndrome, retroperitoneal; or 4) Contributing to death.
The secondary safety outcomes were: Clinically relevant non-major bleeding and trivial (minimal) bleeding events.

[2] = UNIVERSE study: population PK and steady-state exposure of rivaroxaban in post-Fontan pediatric patients
Experimental: Rivaroxaban was administered twice daily (BID) in an open-label fashion as a 0.1% (1 mg/mL) oral suspension based on weight as shown in Table 2 (not related to prandial state).
Blood samples were collected for PK (i.e., plasma rivaroxaban concentrations) and full PD (prothrombin time [PT], activated partial thromboplastin time [aPTT], and anti-factor Xa activity) assessments on the first day of dosing between 0.5 to 1.5 hours and again between 1.5 to 4.0 hours postdose. Additional samples were collected on Day 4, just prior to rivaroxaban administration (PK, PT, aPTT) and again between 0.5 to 1.5 hours (PK, PT, aPTT), 1.5 to 4.0 hours (PK, PT, aPTT), and 6.0 to 8.0 hours (PK and full PD) postdose. At Month 3, samples were collected just prior to rivaroxaban dosing (PK and full PD) and at 0.5 to 1.5 hours postdose (PK, PT, aPTT) and 2.5 to 4 hours postdose (PK, PT, aPTT). An additional random sample (PK, PT, and aPTT) was collected at Month 12.
In Part B, blood samples were collected for assessment of PT and aPTT before the first dosing; PK and full PD samples were collected between 0.5 to 1.5 hours and again between 1.5 to 4.0 hours after the first dose. At Month 3, PK and full PD samples were collected just prior to rivaroxaban administration and again between 0.5 to 1.5 hours, and 2.5 to 4.0 hours postdose. An additional random sample (PK, PT, and aPTT) was collected at Month 12.
Blood samples for PK or PD assays were centrifuged, and the resulting plasma samples were frozen and stored below −15° C. until analyzed. Rivaroxaban plasma concentrations were determined using the validated liquid chromatography/mass spectrometry/mass spectrometry (LC-MS/MS) method with a lower limit of quantitation (LLOQ) of 0.5 μg/L. The pharmacodynamic effects of rivaroxaban were assessed by evaluation of prothrombin time (PT), activated partial thromboplastin time (aPTT), and anti-Factor Xa activity (AXA).
Patients in Part A received their first dose of rivaroxaban oral suspension on Day 1 (on site) and then continued taking rivaroxaban twice daily for 12 days (+9 days) to achieve steady state. PK and PD samples were collected on Day 1 and Day 4 (+2 days) of rivaroxaban administration (Table 3).
Part A, individual empirical Bayesian post-hoc PK parameters were derived using the existing population PK model from the Einstein Jr program (with the NONMEM option: $ESTIMATION MAXEVAL=0).
The population PK model used for the rivaroxaban PK profile evaluation was based on the Einstein Jr program. The pharmacokinetics of rivaroxaban were described by a linear two-compartment model with first-order oral absorption and first-order elimination from the central compartment with the absorption rate constant (KA), apparent clearance of the central compartment (CL/F), apparent central volume of distribution (Vc/F), apparent peripheral volume of distribution (Vp/F), and transport rate between the central and peripheral compartments (CI) as structural model parameters. CL/F, Q/F, Vp/F, and Vc/F were fig. allometrically scaled with body weight. Inter-individual variability (IIV) was identified for KA and CL/F. Residual error was described by a proportional error model.

[3] = UNIVERSE primary efficacy outcome: any thrombotic event (CIAC adjudicated); format: in vivo, pediatric patients; conditions: full analysis set
Description: This study was a prospective, open-label, active-controlled, multicenter study designed to evaluate the PK and PK/PD profiles, safety, and efficacy of rivaroxaban for thromboprophylaxis in pediatric patients 2 to 8 years of age with single ventricle physiology who have completed the Fontan procedure within 4 months prior to enrollment. The trial was approved by the institutional review board of each participating institution, as well as the appropriate national ethics committee. Written informed consent for trial participation was obtained from the parent or guardian of each patient. An Independent Data Monitoring Committee (IDMC) ensured patients' safety throughout the trial. A Central Independent Adjudication Committee (CIAC) reviewed all efficacy and safety events.
Part B was the randomized, open-label, active-controlled part of the study that evaluated the safety and efficacy of twice daily administration of rivaroxaban compared to ASA (usual standard of care) for thromboprophylaxis for 12 months. Patients randomized to rivaroxaban also had PK and PD assessments.
Primary efficacy outcome: Any thrombotic event, venous or arterial, symptomatic or asymptomatic defined as: • The appearance of a new thrombus within the cardiovascular system on either routine surveillance or clinically indicated imaging, or • The occurrence of a clinical event known to be strongly associated with thrombus (e.g., stroke, pulmonary embolism).
All efficacy outcomes were adjudicated by the CIAC, blinded to assigned treatment.

[4] = system: prothrombin time (PT), activated partial thromboplastin time (aPTT); assay: UNIVERSE PK/PD: PT and aPTT vs plasma rivaroxaban concentration; format: in vivo, pediatric patients; conditions: UNIVERSE vs adult studies ODIXa-HIP2 and ODIXa-KNEE
Experimental: PT and aPTT were determined using an electromagnetic mechanical clot detection method at ARUP laboratory (Salt Lake City, Utah, USA). The PT assay was performed according to the manufacturers' instructions on the STA Compact Hemostasis Workstation (STA Compact coagulation analyzer) using one PT reagent (STA-Neoplastine CI Plus, Diagnostica Stago, Inc), with an International Sensitivity Index (ISI) of around 1.3. The primary read-out for PT was in seconds, as the International Normalization Ratio (INR) which allows for comparison of PT values regardless of the reagents and instruments used for its determination, is only calibrated and validated for VKA and cannot be used for any other anticoagulant without validation. The PT reportable range is between 10 and 120 seconds. […] The read-out for aPTT is in seconds with a reportable range between 5 and 180 seconds. Anti-Factor Xa activity was determined at Eurofins Biomnis (France). Anti-Factor Xa activity was measured using a one-step reaction based on the inhibitory effect of rivaroxaban against factor Xa's activity of generating thrombin from prothrombin after adding rivaroxaban into the plasma-substrate mixture using the STA-COMPACT MAX2® system (Diagnostica Stago, Asnieres-sur-Seine, France). […] The calibration range of the assay is 35 to 500 ng/mL, and the lower limit of quantification (LLOQ) is 35 ng rivaroxaban/mL. […]

[5] = UNIVERSE Part A, weight-based dose regimen BID, N=12
[6] = UNIVERSE all patients, weight-based dose regimen BID, N=76
[7] = full UNIVERSE data-set, population PK model
[8] = full UNIVERSE data-set, subject with body weight of 15 kg
[9] = Part A N=12, up to end of treatment
[10] = Part B rivaroxaban N=64, aspirin N=34, up to end of treatment
[11] = rivaroxaban Part A+B total N=76, up to end of treatment

For `O=C(NC[C@H]1CN(c2ccc(N3CCOCC3=O)cc2)C(=O)O1)c1ccc(Cl)s1` [Rivaroxaban, 5-chloro-N-({(5S)-2-oxo-3-[4-(3-oxo-4-morpholinyl)phenyl]-1,3,oxazolidin-5-yl}methyl)-2-thiophenecarboxamide], the “CRNM bleeding: Hematoma, subjects n (%)” value [1] was 0, the “CRNM bleeding: Subconjunctival, subjects n (%)” value [1] was 0 and the “Clinically relevant non-major (CRNM) bleeding, % of subjects” value [1] was “(6.3%)”. For the same compound, the “Clinically relevant non-major (CRNM) bleeding, No. of subjects with event” value [1] was 4/64, the “Clinically relevant non-major bleeding, subjects n (%)” value [1] was 5 and the “Fall in hemoglobin ≥2 g/dL or transfusion of the equivalent ≥2 units of packed red blood cell or whole blood in adults, No. of subjects with event” value [1] was 1/64. The “Fall in hemoglobin ≥2 g/dL or transfusion of the equivalent ≥2 units, % of subjects” value [1] was “(1.6%)”, the “Fatal or critical site bleeding, No. of subjects with event” value [1] was 0 and the “Major and clinically relevant non-major bleeding, % of subjects” value [1] was “(7.8%)”. The “Major and clinically relevant non-major bleeding, No. of subjects with event” value [1] was 5/64, the “Major bleeding (ISTH), % of subjects” value [1] was “(1.3%)” and the “Major bleeding (ISTH), subjects n (%)” value [1] was 1. The “Major bleeding (primary safety outcome), % of subjects” value [1] was “(1.6%)”, the “Major bleeding (primary safety outcome), No. of subjects with event” value [1] was 1/64 and the “Trivial (minimal) bleeding, % of subjects” value [1] was “(32.8%)”. The “Trivial (minimal) bleeding, No. of subjects with event” value [1] was 21/64, the “Trivial bleeding, subjects n (%)” value [1] was 24 and the “Trivial bleeding: GI-Lower, subjects n (%)” value [1] was 0. For the same compound, the “Individual values for AUCss,24h, Cmax,ss and Ctrough,ss vs adult reference range” value ([2]; UNIVERSE Part A) was “within the adult reference range”, the “AUC24h,ss geometric mean (90% CI)” value [2, 5] was 1698 ng·h/mL and the “AUC24h,ss median (range)” value [2, 5] was 1718 ng·h/mL. For the same compound, the “Cmax,ss median (range)” value [2, 5] was 121.8 ng/mL, the “Ctrough,ss geometric mean (90% CI)” value [2, 5] was 28.6 ng/mL and the “Ctrough,ss median (range)” value [2, 5] was 29 ng/mL. For the same compound, the “AUC24h,ss geometric mean (90% CI)” value [2, 6] was 1440 ng·h/mL, the “Cmax,ss geometric mean (90% CI)” value [2, 6] was 109.0 ng/mL and the “Cmax,ss median (range)” value [2, 6] was 113.3 ng/mL. The “Ctrough,ss geometric mean (90% CI)” value [2, 6] was 22.8 ng/mL, the “Ctrough,ss median (range)” value [2, 6] was 23.2 ng/mL and the “Body weight exponent for Vc/F” value [2, 7] was 1.20. The “First-order absorption rate constant” value [2, 7] was 1.12 h⁻¹, the “CL/F (population PK estimate)” value [2, 8] was 3.30 L/h and the “Q/F (population PK estimate)” value [2, 8] was 1.09 L/h. The “Vc/F (population PK estimate)” value [2, 8] was 17.6 L, the “Ischemic stroke, subjects n (%)” value [3, 9] was 0 and the “Other thrombosis, subjects n (%)” value [3, 9] was 0. For the same compound, the “All-cause mortality, No. of subjects with event” value [3, 10] was 0, the “Any thrombotic event (primary efficacy outcome), % of subjects” value [3, 10] was “(1.6%)” and the “Arterial/intracardiac thrombosis, subjects n (%)” value [3, 10] was 0. The “Ischemic stroke, subjects n (%)” value [3, 10] was 0, the “Other thrombosis, subjects n (%)” value [3, 10] was 0 and the “Pulmonary embolism, % of subjects” value [3, 10] was “(1.6%)”. For the same compound, the “Venous thromboembolism, % of subjects” value [3, 10] was “(1.6%)”, the “Venous thromboembolism, No. of subjects with event” value [3, 10] was 1/64 and the “Venous thrombosis, subjects n (%)” value [3, 10] was 0. The “Any thrombotic event (primary efficacy outcome), % of subjects” value ([3]; rivaroxaban Part A+B total N=76) was 3%, the “Arterial/intracardiac thrombosis, subjects n (%)” value [3, 11] was 0 and the “Ischemic stroke, subjects n (%)” value [3, 11] was 0. For the same compound, the “Other thrombosis, subjects n (%)” value [3, 11] was 0, the “PT vs rivaroxaban concentration compared with adult reference” value [4] was “within the 99% prediction range observed in the adult reference studies” and the “aPTT vs rivaroxaban concentration compared with adult reference” value [4] was “within the 99% prediction range observed in the adult reference studies; also recorded: less steep in comparison to adult reference”.
